Test results as given in patent US12180207B2 (ARRAY BIOPHARMA INC., priority 2018, dated 2024).
pIC50: −log10 of the molar value.

Columns and labels:
[1] = target: FGFR1 (SEQ ID NO: 1, amino acids 458-765) (Homo sapiens (Human), UniProt P11362); assay: LC/MS FGFR1 kobs assay (covalent protein modification); type: binding; settings: 500 nM FGFR1, 3 μM compound
Method in brief: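 Covalent labeling of FGFR1 kinase domain (aa 458-765) tracked over time by intact-protein LC/MS after formic acid quench. kobs derived by fitting DMSO-normalized percent unmodified FGFR1 to an exponential decay model.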

[2] = target: recombinant human FGFR1 catalytic domain (amino acids 308-731) (Homo sapiens (Human), UniProt P11362); assay: FGFR1 enzyme activity assay (LanthaScreen TR-FRET); type: biochemical; settings: 20 min incubation at 22° C., average of multiple determinations if made, read-out: FGFR1 Enz FRET IC50
Method in brief: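 His-tagged FGFR1 kinase domain with 100 nM Alexa Fluor 647-poly-GT peptide and ATP in pH 7.5 HEPES/MgCl2 buffer with 2% DMSO, 20 min at 22 °C. Quenched with EDTA plus 2 nM Eu-PY20 antibody and read after 60 min. IC50 comes from a 4-parameter fit of percent of control.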

[3] = target: FGFR3 (SEQ ID NO: 5, amino acids 449-759) (Homo sapiens (Human), UniProt P22607); assay: LC/MS FGFR3 kobs assay (covalent protein modification); type: binding; settings: 500 nM FGFR3, 3 μM compound
Method in brief: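 Timed reactions were stopped with 0.4% formic acid, and covalent adduct formation was measured by LC/MS on a Q-TOF with deconvolution of protein masses. Modified signal was normalized to DMSO-control unmodified protein at each time point; percent unmodified protein was fit to exponential decay to give kobs.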

[4] = target: recombinant human FGFR3 (amino acids R397-T806) (Homo sapiens (Human), UniProt P22607); assay: FGFR3 enzyme activity assay (LanthaScreen TR-FRET); type: biochemical; settings: 25 μM ATP, 10 min incubation at 22° C., average of multiple determinations if made, read-out: FGFR3 Enz FRET IC50
Method in brief: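 GST-HIS6-tagged human FGFR3 (R397-T806) was reacted with 100 nM Alexa Fluor 647-Poly-GT substrate and 25 μM ATP plus compound in HEPES/MgCl2/Triton buffer, pH 7.5, 2% DMSO, for 10 min at 22 °C.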

Chain of FGFR3 (SEQ ID NO: 5, amino acids 449-759) (P22607 449-759): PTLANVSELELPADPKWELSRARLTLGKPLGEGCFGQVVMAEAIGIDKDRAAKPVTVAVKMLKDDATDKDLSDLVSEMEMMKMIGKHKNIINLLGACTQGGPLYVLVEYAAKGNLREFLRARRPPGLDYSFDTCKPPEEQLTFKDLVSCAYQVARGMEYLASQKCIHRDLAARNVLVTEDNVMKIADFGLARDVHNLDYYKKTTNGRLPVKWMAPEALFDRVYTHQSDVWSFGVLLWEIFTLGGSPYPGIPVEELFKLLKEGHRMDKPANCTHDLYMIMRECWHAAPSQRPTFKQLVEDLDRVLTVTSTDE
Chain of FGFR1 (SEQ ID NO: 1, amino acids 458-765) (P11362 458-765): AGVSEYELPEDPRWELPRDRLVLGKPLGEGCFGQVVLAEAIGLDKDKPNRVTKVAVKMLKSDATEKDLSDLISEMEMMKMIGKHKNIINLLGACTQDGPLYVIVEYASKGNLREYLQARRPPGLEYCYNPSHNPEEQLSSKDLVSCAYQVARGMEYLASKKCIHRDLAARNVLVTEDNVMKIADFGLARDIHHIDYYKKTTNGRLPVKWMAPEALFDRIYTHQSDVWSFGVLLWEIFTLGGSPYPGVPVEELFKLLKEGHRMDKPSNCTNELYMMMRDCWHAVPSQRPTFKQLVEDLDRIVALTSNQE
Chain of recombinant human FGFR1 catalytic domain (amino acids 308-731) (P11362 other isoform, or with tags, fused parts or gaps): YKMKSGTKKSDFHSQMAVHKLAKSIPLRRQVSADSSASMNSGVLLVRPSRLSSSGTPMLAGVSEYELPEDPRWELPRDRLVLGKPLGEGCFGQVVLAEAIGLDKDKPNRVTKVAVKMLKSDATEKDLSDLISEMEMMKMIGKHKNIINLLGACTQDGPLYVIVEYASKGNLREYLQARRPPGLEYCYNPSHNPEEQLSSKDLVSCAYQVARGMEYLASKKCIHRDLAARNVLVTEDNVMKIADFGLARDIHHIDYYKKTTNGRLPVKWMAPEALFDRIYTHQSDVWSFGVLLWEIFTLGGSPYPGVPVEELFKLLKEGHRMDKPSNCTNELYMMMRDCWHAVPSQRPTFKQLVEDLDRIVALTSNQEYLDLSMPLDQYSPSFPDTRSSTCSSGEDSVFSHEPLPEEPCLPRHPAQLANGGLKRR
Chain of recombinant human FGFR3 (amino acids R397-T806) (P22607 397-806): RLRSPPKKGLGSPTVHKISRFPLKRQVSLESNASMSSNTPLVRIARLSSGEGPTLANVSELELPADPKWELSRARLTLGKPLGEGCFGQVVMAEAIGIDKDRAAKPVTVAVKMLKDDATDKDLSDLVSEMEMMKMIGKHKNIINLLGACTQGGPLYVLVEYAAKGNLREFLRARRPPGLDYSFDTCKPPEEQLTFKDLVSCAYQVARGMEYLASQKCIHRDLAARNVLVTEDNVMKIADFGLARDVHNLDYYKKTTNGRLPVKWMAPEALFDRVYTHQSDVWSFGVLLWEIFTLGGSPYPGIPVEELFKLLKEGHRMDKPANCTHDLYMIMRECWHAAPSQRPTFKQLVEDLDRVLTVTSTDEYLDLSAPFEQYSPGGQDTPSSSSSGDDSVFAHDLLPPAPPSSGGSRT

FGFR1 Enz kobs [1]	pIC50 [2]	FGFR3 Enz kobs [3]	pIC50 [4]	SMILES
0.00179 min⁻¹	8.40	0.01811 min⁻¹	8.52	COc1cc(-c2cnn(C3CCN(C(=O)C4CN(C(=O)/C=C/CN5CCCCC5)C4)CC3)c2)cn2ncc(C#N)c12 [Example 145, (E)-4-methoxy-6-(1-(1-(1-(4-(piperidin-1-yl)but-2-enoyl)azetidine-3-carbonyl)piperidin-4-yl)-1H-pyrazol-4-yl)pyrazolo[1,5-a]pyridine-3-carbonitrile]
0.00148 min⁻¹	7.85	0.01646 min⁻¹	8.22	C=CC(=O)N1CC(C(=O)N2CCC(n3cc(-c4cc(C(C)C)c5c(C#N)cnn5c4)cn3)CC2)C1 [Example 129, 6-(1-(1-(1-acryloylazetidine-3-carbonyl)piperidin-4-yl)-1H-pyrazol-4-yl)-4-isopropylpyrazolo[1,5-a]pyridine-3-carbonitrile]
0.00127 min⁻¹	7.55	0.01396 min⁻¹	8.05	C=CC(=O)N1CC(C(=O)N2CCC(n3cc(-c4cc(OC)c5c(Cl)cnn5c4)cn3)CC2)C1 [Example 122, 1-(3-(4-(4-(3-chloro-4-methoxypyrazolo[1,5-a]pyridin-6-yl)-1H-pyrazol-1-yl)piperidine-1-carbonyl)azetidin-1-yl)prop-2-en-1-one]
0.00133 min⁻¹	8.15	0.01654 min⁻¹	8.52	C=CC(=O)N1CC(C(=O)N2CCC(n3cc(-c4cc(OC(C)C)c5c(C#N)cnn5c4)cn3)CC2)C1 [Example 127, 6-(1-(1-(1-acryloylazetidine-3-carbonyl)piperidin-4-yl)-1H-pyrazol-4-yl)-4-isopropoxypyrazolo[1,5-a]pyridine-3-carbonitrile]
0.00042 min⁻¹	7.74	0.00305 min⁻¹	8.70	C=CC(=O)N1C[C@H]2CN(C(=O)N3CCC(n4cc(-c5cc(OC)c6c(C#N)cnn6c5)cn4)CC3)C[C@H]21 [Example 7, 6-(1-(1-((1S,5S)-6-acryloyl-3,6-diazabicyclo[3.2.0]heptane-3-carbonyl)piperidin-4-yl)-1H-pyrazol-4-yl)-4-methoxypyrazolo[1,5-a]pyridine-3-carbonitrile]
0.00093 min⁻¹	8.00	0.00902 min⁻¹	8.40	C=CC(=O)N1CC2(CCN(C(=O)N3CCC(n4cc(-c5cc(OC)c6c(C#N)cnn6c5)cn4)CC3)CC2)C1 [Example 6, 6-(1-(1-(2-acryloyl-2,7-diazaspiro[3.5]nonane-7-carbonyl)piperidin-4-yl)-1H-pyrazol-4-yl)-4-methoxypyrazolo[1,5-a]pyridine-3-carbonitrile]
0.01483 min⁻¹	8.30	0.08793 min⁻¹	8.30	C=CS(=O)(=O)N1CCC(C(=O)N2CCC(n3cc(-c4cc(OC)c5c(C#N)cnn5c4)cn3)CC2)CC1 [Example 186, 4-methoxy-6-(1-(1-(1-(vinylsulfonyl)piperi-dine-4-carbonyl)piperidin-4-yl)-1H-pyrazol-4-yl)pyrazolo[1,5-a]pyridine-3-carbonitrile]
0.00276 min⁻¹	6.93	0.01865 min⁻¹	7.14	C=CC(=O)N1CC(C(=O)N2CCC(n3cc(-c4cc(OC)c5c(C#N)cnn5c4)c(CC)n3)CC2)C1 [Example 97, 6-(1-(1-(1-acryloylazetidine-3-carbonyl)piperidin-4-yl)-3-ethyl-1H-pyrazol-4-yl)-4-methoxypyrazolo[1,5-a]pyridine-3-carbonitrile]

The remaining lines, values behind:

SMILES	FGFR1 Enz kobs [1]	pIC50 [2]	FGFR3 Enz kobs [3]	pIC50 [4]
C=CC(=O)N1CC(C(=O)N2CCN(c3ccc(-c4cc(OC)c5c(C#N)cnn5c4)cc3)CC2)C1 [Example 100, 6-(4-(4-(1-acryloylazetidine-3-carbonyl)piperazin-1-yl)phenyl)-4-methoxypyrazolo[1,5-a]pyridine-3-carbonitrile]	0.0025 min⁻¹	8.05	0.02324 min⁻¹	8.70
C=CC(=O)N1CC(C(=O)N2CCC(n3cnc(-c4cc(OC)c5c(C#N)cnn5c4)c3)CC2)C1 [Example 98, 6-(1-(1-(1-acryloylazetidine-3-carbonyl)piperidin-4-yl)-1H-imidazol-4-yl)-4-methoxypyrazolo[1,5-a]pyridine-3-carbonitrile]	0.00167 min⁻¹	7.66	0.01995 min⁻¹	8.05
C=CC(=O)Nc1ccc(CN2CCC(n3cc(-c4cc(OC)c5c(C#N)cnn5c4)cn3)CC2)cc1 [Example 9, N-(4-((4-(4-(3-cyano-4-methoxypyrazolo[1,5-a]pyridin-6-yl)-1H-pyrazol-1-yl)piperidin-1-yl)methyl)phenyl)acrylamide]	0.0059 min⁻¹	7.49	0.02298 min⁻¹	8.40
C=CC(=O)N1CC(C(=O)N2CCC(n3cc(-c4cc(-c5ccccc5F)c5c(C#N)cnn5c4)cn3)CC2)C1 [Example 131, 6-(1-(1-(1-acryloylazetidine-3-carbonyl)piperidin-4-yl)-1H-pyrazol-4-yl)-4-(2-fluorophenyl)pyrazolo[1,5-a]pyridine-3-carbonitrile]	0.00146 min⁻¹	8.05	0.01762 min⁻¹	8.40
C=CC(=O)N1CC(C)(C(=O)N2CCC(n3cc(-c4cc(OC)c5c(Cl)cnn5c4)cn3)CC2)C1 [Example 123, 1-(3-(4-(4-(3-chloro-4-methoxypyrazolo[1,5-a]pyridin-6-yl)-1H-pyrazol-1-yl)piperidine-1-carbonyl)-3-methylazetidin-1-yl)prop-2-en-1-one]	0.00126 min⁻¹	7.40	0.01169 min⁻¹	8.10
C=CC(=O)N1CC(C(=O)N2CCC(n3cc(-c4cc(OC5CCC5)c5c(C#N)cnn5c4)cn3)CC2)C1 [Example 125, 6-(1-(1-(1-acryloylazetidine-3-carbonyl)piperidin-4-yl)-1H-pyrazol-4-yl)-4-cyclobutoxypyrazolo[1,5-a]pyridine-3-carbonitrile]	0.00246 min⁻¹	8.40	0.01842 min⁻¹	8.52
C=CC(=O)N1CC(F)(C(=O)N2CCN(c3cc(C)c(-c4cc(OC)c5c(C#N)cnn5c4)cn3)CC2)C1 [Example 114, 6-(6-(4-(1-acryloyl-3-fluoroazetidine-3-carbonyl)piperazin-1-yl)-4-methylpyridin-3-yl)-4-methoxypyrazolo[1,5-a]pyridine-3-carbonitrile]	0.00369 min⁻¹	6.51	0.03264 min⁻¹	6.59
C=CC(=O)N1CC(C(=O)N2CCN(c3ccc(-c4cc(OC)c5c(C#N)cnn5c4)cn3)CC2)C1 [Example 111, 6-(6-(4-(1-acryloylazetidine-3-carbonyl)piperazin-1-yl)pyridin-3-yl)-4-methoxypyrazolo[1,5-a]pyridine-3-carbonitrile]	0.00263 min⁻¹	7.92	0.04009 min⁻¹	8.52
C=CC(=O)N1CC(C(=O)N2CCN(c3cnc(-c4cc(OC)c5c(C#N)cnn5c4)cn3)CC2)C1 [Example 116, 6-(5-(4-(1-acryloylazetidine-3-carbonyl)piperazin-1-yl)pyrazin-2-yl)-4-methoxypyrazolo[1,5-a]pyridine-3-carbonitrile]	0.00277 min⁻¹	7.27	0.02585 min⁻¹	7.57
C=CC(=O)N(C)c1ccc(CN2CCC(n3cc(-c4cc(OC)c5c(C#N)cnn5c4)cn3)CC2)cc1 [Example 10, N-(4-((4-(4-(3-cyano-4-methoxypyrazolo[1,5-a]pyridin-6-yl)-1H-pyrazol-1-yl)piperidin-1-yl)methyl)phenyl)-N-methylacrylamide]	0.0034 min⁻¹	7.47	0.01566 min⁻¹	8.22
C=CC(=O)N1CC(C(=O)N2CCN(c3ccc(-c4cc(OC)c5c(C#N)cnn5c4)nn3)CC2)C1 [Example 115, 6-(6-(4-(1-acryloylazetidine-3-carbonyl)piperazin-1-yl)pyridazin-3-yl)-4-methoxypyrazolo[1,5-a]pyridine-3-carbonitrile]	0.0016 min⁻¹	7.07	0.01937 min⁻¹	7.74
